Experiments:
[1] = target: T1, IRAK4 (Homo sapiens (Human), UniProt Q9NWZ3); assay: IRAK4 Degradation HiBiT Assay; details: multiple runs, HiBiT-tagged Jurkat cells, 4 hrs; for Dmax: Jurkat, read-out: Cellular IRAK4 HiBiT: Dmax, Table 5; for DC50: read-out: Cellular IRAK4 HiBiT: DC50, Table 5
Target sequence in this assay (Q9NWZ3 whole entry): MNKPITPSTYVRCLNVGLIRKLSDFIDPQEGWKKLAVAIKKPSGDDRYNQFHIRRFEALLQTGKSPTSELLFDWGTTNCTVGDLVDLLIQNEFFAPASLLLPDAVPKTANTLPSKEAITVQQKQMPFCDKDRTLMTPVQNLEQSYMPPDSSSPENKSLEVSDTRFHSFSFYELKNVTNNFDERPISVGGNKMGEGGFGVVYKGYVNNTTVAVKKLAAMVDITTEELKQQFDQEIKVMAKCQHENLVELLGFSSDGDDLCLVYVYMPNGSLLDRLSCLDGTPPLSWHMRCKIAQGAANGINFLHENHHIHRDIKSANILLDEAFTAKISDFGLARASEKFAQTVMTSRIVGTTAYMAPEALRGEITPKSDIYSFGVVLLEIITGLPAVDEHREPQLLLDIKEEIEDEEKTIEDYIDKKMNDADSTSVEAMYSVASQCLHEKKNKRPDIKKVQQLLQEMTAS
Procedure: Compound dilution series (11-point, 3.16-fold dilutions in DMSO, columns 1-11 and 12-22) at 500× the final required concentrations were prepared in Labcyte LDV 384-well plates (cat. no. LP-0200) using a Labcyte Echo 550 Liquid Handler. The 500× solutions ranged from 5 mM to 0.5 μM (final assay concentration range 10 μM to 0.1 nM). Using the Echo, the 500× solutions were stamped into white, 384-well assay plates (Corning, cat. no. 3570) at 60 nL/well. […] C-terminal HiBiT-tagged Jurkat cells (polyclonal cell line or clone 8D5) were plated at 1×10^6 cells/mL, 30 μL/well (3×10^4 cells/well) in complete RPMI (10% FBS, 1% L-glutamine). Cells were incubated for 4 hrs at 32° C./6% CO2.
Following incubation, 30 uL of complete Nano-Glo HiBiT Lytic Detection Reagent (Nano-Glo HiBiT Lytic Buffer with 1:50 Nano-Glo HiBiT Lytic Substrate and 1:100 LgBiT Protein; Promega cat. no. N3040) was added. Cells were further incubated for 10 min at room temperature (RT). Luminescence units (LU) were read on an EnVision plate reader (Perkin Elmer, 0.1 sec per well). Percent IRAK4 remaining per sample was calculated as follows:
Using Graphpad Prism, % IRAK4 remaining values were plotted as a function of compound concentration.

[2] = target: T1, IRAK4; assay: IRAK4 Biochemical HTRF Kinase Assay; details: Table 5; multiple runs; read-out: IRAK4 HTRF biochemical: IC50
How it was run: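 HTRF KinEASE STK S1 format measuring IRAK4 phosphorylation of biotinylated peptide; reaction solution of 5 μM STK-S1, 10 mM ATP, 10 mM MgCl2 added (stock, to 10 μl final), 90 min at ambient temperature, detection 60 min. IC50 from sixteen-point duplicate curves by non-linear regression.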
Target sequence in this assay (Q9NWZ3 whole entry, species assumed): as the sequence (Q9NWZ3 whole entry) above

SMILES | Dmax [1] [%] | DC50 [1] [nM] | IC50 [2] [nM]
CC(C)Nc1cc(-c2ccc3cc(C#N)cnn23)ncc1-c1nnc(N2CCN(CC3CCN(Cc4ccc5c(c4)C(=O)N(C4CCC(=O)NC4=O)C5=O)CC3)CC2)s1 (centres unmarked) [Example 85, 7-(5-(5-(4-((1-((2-(2,6-dioxopiperidin-3-yl)-1,3-dioxoisoindolin-5-yl)methyl)piperidin-4-yl)methyl)piperazin-1-yl)-1,3,4-thiadiazol-2-yl)-4-(isopropylamino)pyridin-2-yl)pyrrolo[1,2-b]pyridazine-3-carbonitrile] | – | > 970 | 2.1
CNc1cc(-c2ccc3cc(C#N)cnn23)ncc1-c1nnc(N2CCN(C(=O)C[C@@H]3CCCN(c4cccc5c4C(=O)N(C4CCC(=O)NC4=O)C5=O)C3)CC2)s1 (stereo partly drawn) [Example 88, 7-(5-(5-(4-(2-((3S)-1-(2-(2,6-dioxopiperidin-3-yl)-1,3-dioxoisoindolin-4-yl)piperidin-3-yl)acetyl)piperazin-1-yl)-1,3,4-thiadiazol-2-yl)-4-(methylamino)pyridin-2-yl)pyrrolo[1,2-b]pyridazine-3-carbonitrile] | – | > 3330 | 1.4
CNc1cc(-c2ccc3cc(C#N)cnn23)ncc1-c1nnc(N2CCN(C(=O)C3CCN(c4cccc5c4C(=O)N(C4CCC(=O)NC4=O)C5=O)CC3)CC2)s1 (centres unmarked) [Example 89, 7-(5-(5-(4-(1-(2-(2,6-dioxopiperidin-3-yl)-1,3-dioxoisoindolin-4-yl)piperidine-4-carbonyl)piperazin-1-yl)-1,3,4-thiadiazol-2-yl)-4-(methylamino)pyridin-2-yl)pyrrolo[1,2-b]pyridazine-3-carbonitrile] | – | > 9980 | 0.9
CNc1cc(-c2ccc3cc(C#N)cnn23)ncc1-c1nnc(N2CCC(NC(=O)C3CCN(c4cccc5c4C(=O)N(C4CCC(=O)NC4=O)C5=O)CC3)CC2)s1 (centres unmarked) [Example 90, N-(1-(5-(6-(3-cyanopyrrolo[1,2-b]pyridazin-7-yl)-4-(methylamino)pyridin-3-yl)-1,3,4-thiadiazol-2-yl)piperidin-4-yl)-1-(2-(2,6-dioxopiperidin-3-yl)-1,3-dioxoisoindolin-4-yl)piperidine-4-carboxamide] | – | > 9980 | 0.8
CNc1cc(-c2ccc3cc(C#N)cnn23)ncc1-c1nnc(N2CCN(C[C@H]3CCN(c4ccc5c(c4)n(C)c(=O)n5C4CCC(=O)NC4=O)C3)CC2)s1 (stereo partly drawn) [Example 91, 7-(5-(5-(4-(((3R)-1-(1-(2,6-dioxopiperidin-3-yl)-3-methyl-2-oxo-2,3-dihydro-1H-benzo[d]imidazol-5-yl)pyrrolidin-3-yl)methyl)piperazin-1-yl)-1,3,4-thiadiazol-2-yl)-4-(methylamino)pyridin-2-yl)pyrrolo[1,2-b]pyridazine-3-carbonitrile] | – | > 970 | 1.6
CNc1cc(-c2ccc3cc(C#N)cnn23)ncc1-c1nnc(N2CCN(C[C@@H]3CCN(c4ccc5c(c4)n(C)c(=O)n5C4CCC(=O)NC4=O)C3)CC2)s1 (stereo partly drawn) [Example 92, 7-(5-(5-(4-(((3S)-1-(1-(2,6-dioxopiperidin-3-yl)-3-methyl-2-oxo-2,3-dihydro-1H-benzo[d]imidazol-5-yl)pyrrolidin-3-yl)methyl)piperazin-1-yl)-1,3,4-thiadiazol-2-yl)-4-(methylamino)pyridin-2-yl)pyrrolo[1,2-b]pyridazine-3-carbonitrile] | – | > 970 | 1
CNc1cc(-c2ccc3cc(C#N)cnn23)ncc1-c1nnc(N2CCC(NC[C@@H]3CCN(c4ccc5c(c4)n(C)c(=O)n5C4CCC(=O)NC4=O)C3)CC2)s1 (stereo partly drawn) [Example 93, 7-(5-(5-(4-((((3S)-1-(1-(2,6-dioxopiperidin-3-yl)-3-methyl-2-oxo-2,3-dihydro-1H-benzo[d]imidazol-5-yl)pyrrolidin-3-yl)methyl)amino)piperidin-1-yl)-1,3,4-thiadiazol-2-yl)-4-(methylamino)pyridin-2-yl)pyrrolo[1,2-b]pyridazine-3-carbonitrile] | – | > 9980 | 0.9
CNc1cc(-c2ccc3cc(C#N)cnn23)ncc1-c1nnc(N2CCN(C(=O)CN3CCN(c4ccc5c(c4)C(=O)N(C4CCC(=O)NC4=O)C5=O)CC3)CC2)s1 (centres unmarked) [Example 94, 7-(5-(5-(4-(2-(4-(2-(2,6-dioxopiperidin-3-yl)-1,3-dioxoisoindolin-5-yl)piperazin-1-yl)acetyl)piperazin-1-yl)-1,3,4-thiadiazol-2-yl)-4-(methylamino)pyridin-2-yl)pyrrolo[1,2-b]pyridazine-3-carbonitrile] | 113 | 321 | 0.6
CNc1cc(-c2ccc3cc(C#N)cnn23)ncc1-c1nnc(N2CCN(C(=O)COc3cc(-c4scnc4C)ccc3CNC(=O)[C@@H]3C[C@@H](O)CN3C(=O)[C@@H](NC(=O)C3(F)CC3)C(C)(C)C)CC2)s1 [Example 96, (2S,4R)—N-(2-(2-(4-(5-(6-(3-cyanopyrrolo[1,2-b]pyridazin-7-yl)-4-(methylamino)pyridin-3-yl)-1,3,4-thiadiazol-2-yl)piperazin-1-yl)-2-oxoethoxy)-4-(4-methylthiazol-5-yl)benzyl)-1-((S)-2-(1-fluorocyclopropane-1-carboxamido)-3,3-dimethylbutanoyl)-4-hydroxypyrrolidine-2-carboxamide] | 90 | 905 | 1.3

These reach a lower DC50 [1]. Values come first.

Dmax [1] [%] | DC50 [1] [nM] | IC50 [2] [nM] | SMILES
59 | 265 | 4.8 | CNc1cc(-c2ccc3cc(C#N)cnn23)ncc1-c1nnc(N2CCC(NC(=O)COc3cc(-c4scnc4C)ccc3CNC(=O)[C@@H]3C[C@@H](O)CN3C(=O)[C@@H](NC(=O)C3(F)CC3)C(C)(C)C)CC2)s1 [Example 97, (2S,4R)—N-(2-(2-((1-(5-(6-(3-cyanopyrrolo[1,2-b]pyridazin-7-yl)-4-(methylamino)pyridin-3-yl)-1,3,4-thiadiazol-2-yl)piperidin-4-yl)amino)-2-oxoethoxy)-4-(4-methylthiazol-5-yl)benzyl)-1-((S)-2-(1-fluorocyclopropane-1-carboxamido)-3,3-dimethylbutanoyl)-4-hydroxypyrrolidine-2-carboxamide]
115 | 247 | 5.5 | Cc1ncsc1-c1ccc(CNC(=O)[C@@H]2C[C@@H](O)CN2C(=O)[C@@H](NC(=O)C2(F)CC2)C(C)(C)C)c(OCC(=O)N2CCC(CN3CCN(c4nnc(-c5cnc(-c6ccc7cc(C#N)cnn67)cc5NC(C)C)s4)CC3)CC2)c1 [Example 84, (2S,4R)—N-(2-(2-(4-((4-(5-(6-(3-cyanopyrrolo[1,2-b]pyridazin-7-yl)-4-(isopropylamino)pyridin-3-yl)-1,3,4-thiadiazol-2-yl)piperazin-1-yl)methyl)piperidin-1-yl)-2-oxoethoxy)-4-(4-methylthiazol-5-yl)benzyl)-1-((S)-2-(1-fluorocyclopropane-1-carboxamido)-3,3-dimethylbutanoyl)-4-hydroxypyrrolidine-2-carboxamide]
105 | 18.5 | 1.1 | CNc1cc(-c2ccc3cc(C#N)cnn23)ncc1-c1nnc(N2CCN(C(=O)C3CCN(Cc4ccc5c(c4)C(=O)N(C4CCC(=O)NC4=O)C5=O)CC3)CC2)s1 (centres unmarked) [Example 86, 7-(5-(5-(4-(1-((2-(2,6-dioxopiperidin-3-yl)-1,3-dioxoisoindolin-5-yl)methyl)piperidine-4-carbonyl)piperazin-1-yl)-1,3,4-thiadiazol-2-yl)-4-(methylamino)pyridin-2-yl)pyrrolo[1,2-b]pyridazine-3-carbonitrile]
70 | 15.8 | 2.4 | CC(C)Nc1cc(-c2ccc3cc(C#N)cnn23)ncc1-c1nnc(N2CCC3(CCN(C(=O)c4ccc5c(c4)C(=O)N(C4CCC(=O)NC4=O)C5)CC3)CC2)s1 (centres unmarked) [Example 87, 7-(5-(5-(9-(2-(2,6-dioxopiperidin-3-yl)-3-oxoisoindoline-5-carbonyl)-3,9-diazaspiro[5.5]undecan-3-yl)-1,3,4-thiadiazol-2-yl)-4-(isopropylamino)pyridin-2-yl)pyrrolo[1,2-b]pyridazine-3-carbonitrile]
108 | 9.74 | 0.8 | CNc1cc(-c2ccc3cc(C#N)cnn23)ncc1-c1nnc(N2CCC(NC(=O)CN3CCN(c4ccc5c(c4)C(=O)N(C4CCC(=O)NC4=O)C5=O)CC3)CC2)s1 (centres unmarked) [Example 95, N-(1-(5-(6-(3-cyanopyrrolo[1,2-b]pyridazin-7-yl)-4-(methylamino)pyridin-3-yl)-1,3,4-thiadiazol-2-yl)piperidin-4-yl)-2-(4-(2-(2,6-dioxopiperidin-3-yl)-1,3-dioxoisoindolin-5-yl)piperazin-1-yl)acetamide]
109 | 6.58 | 0.3 | CNc1cc(-c2ccc3cc(C#N)cnn23)ncc1-c1nnc(N2CCN(C3CCN(C(=O)c4ccc5c(c4)C(=O)N(C4CCC(=O)NC4=O)C5=O)CC3)CC2)s1 (centres unmarked) [Example 98, 7-(5-(5-(4-(1-(2-(2,6-dioxopiperidin-3-yl)-1,3-dioxoisoindoline-5-carbonyl)piperidin-4-yl)piperazin-1-yl)-1,3,4-thiadiazol-2-yl)-4-(methylamino)pyridin-2-yl)pyrrolo[1,2-b]pyridazine-3-carbonitrile]
116 | 3.59 | 0.3 | CNc1cc(-c2ccc3cc(C#N)cnn23)ncc1-c1nnc(N2CCN(C3CCN(C(=O)c4ccc5c(c4)C(=O)N(C4CCC(=O)NC4=O)C5)CC3)CC2)s1 (centres unmarked) [Example 99, 7-(5-(5-(4-(1-(2-(2,6-dioxopiperidin-3-yl)-3-oxoisoindoline-5-carbonyl)piperidin-4-yl)piperazin-1-yl)-1,3,4-thiadiazol-2-yl)-4-(methylamino)pyridin-2-yl)pyrrolo[1,2-b]pyridazine-3-carbonitrile]

Reference: patent US12528814B2, “Bifunctional degraders of interleukin-1 receptor-associated kinases and therapeutic use thereof” (NURIX THERAPEUTICS, INC., priority 2020, dated 2026)
